Laboratory results published in publication doi:10.1101/2024.08.13.607785v1 (biorxiv, 2024).
Like-named read-outs stand apart in the source and are kept apart here.

How the values were obtained:
Assay in all cases: biochemical
[1] = target: Activin receptor type-1 ; ACVR1 ; Q04771 (Homo sapiens, UniProt Q04771); design: species or system human cell line lysate
[2] = target: Protein kinase C delta type ; PRKCD ; Q05655 (Homo sapiens, UniProt Q05655); design: species or system human cell line lysate
[3] = target: Isoform 2 of Ribosomal protein S6 kinase alpha-1 ; RPS6KA1 ; Q15418-2 (Homo sapiens, UniProt Q15418); design: species or system human cell line lysate
[4] = target: Casein kinase I isoform gamma-2 ; CSNK1G2 ; P78368 (Homo sapiens, UniProt P78368); design: species or system human cell line lysate
[5] = target: Mitogen-activated protein kinase 6 ; MAPK6 ; Q16659 (Homo sapiens, UniProt Q16659); design: species or system human cell line lysate
[6] = target: Mitogen-activated protein kinase 9 ; MAPK9 ; P45984 (Homo sapiens, UniProt P45984); design: species or system human cell line lysate
[7] = target: Mitogen-activated protein kinase 15 ; MAPK15 ; Q8TD08 (Homo sapiens, UniProt Q8TD08); design: species or system human cell line lysate
[8] = target: Tyrosine-protein kinase Fer ; FER ; P16591 (Homo sapiens, UniProt P16591); design: species or system human cell line lysate
[9] = target: Serine/threonine-protein kinase RIO2 ; RIOK2 ; Q9BVS4 (Homo sapiens, UniProt Q9BVS4); design: species or system human cell line lysate
[10] = target: Tyrosine-protein kinase Fes/Fps ; FES ; P07332 (Homo sapiens, UniProt P07332); design: species or system human cell line lysate
[11] = target: Mitogen-activated protein kinase kinase kinase kinase 3 ; MAP4K3 ; Q8IVH8 (Homo sapiens, UniProt Q8IVH8); design: species or system human cell line lysate
[12] = target: Serine/threonine-protein kinase haspin ; HASPIN ; Q8TF76 (Homo sapiens, UniProt Q8TF76); design: species or system human cell line lysate
[13] = target: Deoxycytidine kinase ; DCK ; P27707 (Homo sapiens, UniProt P27707); design: species or system human cell line lysate
[14] = target: Mitogen-activated protein kinase kinase kinase 11 ; MAP3K11 ; Q16584 (Homo sapiens, UniProt Q16584); design: species or system human cell line lysate
[15] = target: T1, Tyrosine-protein kinase Tec ; TEC ; P42680 (Homo sapiens, UniProt P42680); design: species or system human cell line lysate
T1 sequence (P42680 1-631): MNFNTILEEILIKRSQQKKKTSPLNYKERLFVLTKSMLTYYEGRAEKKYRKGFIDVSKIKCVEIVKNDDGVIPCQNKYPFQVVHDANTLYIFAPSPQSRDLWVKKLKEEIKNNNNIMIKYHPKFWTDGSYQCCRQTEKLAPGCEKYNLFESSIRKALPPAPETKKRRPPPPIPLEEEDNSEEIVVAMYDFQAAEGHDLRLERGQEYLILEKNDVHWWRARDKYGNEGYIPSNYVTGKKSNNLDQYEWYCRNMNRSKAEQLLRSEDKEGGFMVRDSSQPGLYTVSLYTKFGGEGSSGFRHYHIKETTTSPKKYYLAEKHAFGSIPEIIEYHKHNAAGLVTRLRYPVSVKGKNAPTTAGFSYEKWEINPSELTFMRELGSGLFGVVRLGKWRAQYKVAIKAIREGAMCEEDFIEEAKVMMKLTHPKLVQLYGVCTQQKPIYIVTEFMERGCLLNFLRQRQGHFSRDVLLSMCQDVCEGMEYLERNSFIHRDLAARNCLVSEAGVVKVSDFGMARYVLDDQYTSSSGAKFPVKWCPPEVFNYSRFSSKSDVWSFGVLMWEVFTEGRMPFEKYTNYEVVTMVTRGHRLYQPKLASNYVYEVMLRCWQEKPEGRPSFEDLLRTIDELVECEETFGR

[16] = target: Isoform 2 of Serine/threonine-protein kinase TAO2 ; TAOK2 ; Q9UL54-2 (Homo sapiens, UniProt Q9UL54); design: species or system human cell line lysate
[17] = target: Epithelial discoidin domain-containing receptor 1 ; DDR1 ; Q08345 (Homo sapiens, UniProt Q08345); design: species or system mixed lysate of K562, MV4-11, THP-1, NCI-H1155
[18] = target: Calcium/calmodulin-dependent protein kinase kinase 1 ; CAMKK1 ; Q8N5S9 (Homo sapiens, UniProt Q8N5S9); design: species or system mixed lysate of K562, MV4-11, THP-1, NCI-H1155
[19] = read-out: BAY-1143572 (10 µM) / %Intensity relative to DMSO
[20] = read-out: BAY-1251152 (10 µM) / %Intensity relative to DMSO

Chain of Protein kinase C delta type ; PRKCD ; Q05655 (Q05655 whole entry, canonical isoform): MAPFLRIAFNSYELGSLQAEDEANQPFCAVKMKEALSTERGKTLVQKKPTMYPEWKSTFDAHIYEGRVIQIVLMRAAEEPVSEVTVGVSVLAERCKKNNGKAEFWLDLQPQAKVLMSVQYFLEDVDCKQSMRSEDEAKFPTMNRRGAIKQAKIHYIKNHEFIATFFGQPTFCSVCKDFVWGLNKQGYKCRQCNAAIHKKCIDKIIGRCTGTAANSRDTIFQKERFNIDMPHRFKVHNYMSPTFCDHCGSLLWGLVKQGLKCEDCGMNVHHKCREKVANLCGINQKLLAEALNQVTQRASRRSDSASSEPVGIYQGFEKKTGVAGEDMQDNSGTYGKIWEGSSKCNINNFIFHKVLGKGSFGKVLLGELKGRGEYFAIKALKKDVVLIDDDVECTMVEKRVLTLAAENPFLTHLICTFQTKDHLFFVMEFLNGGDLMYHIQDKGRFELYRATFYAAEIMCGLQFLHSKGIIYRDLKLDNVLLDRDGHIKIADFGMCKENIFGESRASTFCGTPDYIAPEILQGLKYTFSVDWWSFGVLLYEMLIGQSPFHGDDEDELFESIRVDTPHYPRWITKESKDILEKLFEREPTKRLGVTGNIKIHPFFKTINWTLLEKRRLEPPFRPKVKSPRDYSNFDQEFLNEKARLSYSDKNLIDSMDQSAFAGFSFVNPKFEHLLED
Chain of Serine/threonine-protein kinase RIO2 ; RIOK2 ; Q9BVS4 (Q9BVS4 whole entry, one chain of several): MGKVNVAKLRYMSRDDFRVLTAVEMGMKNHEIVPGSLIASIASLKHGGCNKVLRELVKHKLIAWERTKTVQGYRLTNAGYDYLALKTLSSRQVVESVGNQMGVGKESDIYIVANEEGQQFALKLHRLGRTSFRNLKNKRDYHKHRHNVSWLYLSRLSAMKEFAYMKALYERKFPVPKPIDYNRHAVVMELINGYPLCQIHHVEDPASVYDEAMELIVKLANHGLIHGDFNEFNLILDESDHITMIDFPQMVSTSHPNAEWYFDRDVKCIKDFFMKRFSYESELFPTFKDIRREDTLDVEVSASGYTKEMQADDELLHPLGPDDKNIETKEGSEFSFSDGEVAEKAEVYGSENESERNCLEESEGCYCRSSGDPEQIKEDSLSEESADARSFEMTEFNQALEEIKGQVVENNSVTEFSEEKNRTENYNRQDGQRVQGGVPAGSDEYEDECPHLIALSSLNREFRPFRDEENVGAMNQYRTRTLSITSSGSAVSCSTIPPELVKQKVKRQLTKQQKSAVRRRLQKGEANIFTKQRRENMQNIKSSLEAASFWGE
Chain of Epithelial discoidin domain-containing receptor 1 ; DDR1 ; Q08345 (Q08345 whole entry, the tested form may be a part): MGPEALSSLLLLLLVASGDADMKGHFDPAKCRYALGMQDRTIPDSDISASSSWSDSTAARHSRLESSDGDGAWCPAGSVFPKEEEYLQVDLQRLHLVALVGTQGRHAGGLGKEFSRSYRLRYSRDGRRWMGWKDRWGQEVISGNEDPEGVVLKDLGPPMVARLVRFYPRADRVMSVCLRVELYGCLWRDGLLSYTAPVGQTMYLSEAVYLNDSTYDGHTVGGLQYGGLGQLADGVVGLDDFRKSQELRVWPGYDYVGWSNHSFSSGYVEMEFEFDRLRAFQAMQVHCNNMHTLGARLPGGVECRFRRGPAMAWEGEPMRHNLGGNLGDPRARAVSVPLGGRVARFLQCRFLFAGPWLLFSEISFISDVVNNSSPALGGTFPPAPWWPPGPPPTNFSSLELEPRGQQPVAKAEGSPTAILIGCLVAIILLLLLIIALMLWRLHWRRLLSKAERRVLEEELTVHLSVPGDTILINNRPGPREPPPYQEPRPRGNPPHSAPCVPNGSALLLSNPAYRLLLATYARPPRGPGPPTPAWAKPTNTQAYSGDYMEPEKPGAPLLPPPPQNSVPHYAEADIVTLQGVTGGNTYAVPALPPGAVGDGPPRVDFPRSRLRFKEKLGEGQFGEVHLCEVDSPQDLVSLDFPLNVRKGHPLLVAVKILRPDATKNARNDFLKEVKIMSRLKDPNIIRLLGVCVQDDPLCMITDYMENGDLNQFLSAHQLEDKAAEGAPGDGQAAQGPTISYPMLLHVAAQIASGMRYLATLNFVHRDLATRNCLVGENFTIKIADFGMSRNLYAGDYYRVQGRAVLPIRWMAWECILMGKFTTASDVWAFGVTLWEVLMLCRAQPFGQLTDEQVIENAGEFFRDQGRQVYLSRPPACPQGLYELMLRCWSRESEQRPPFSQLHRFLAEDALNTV
Chain of Mitogen-activated protein kinase 6 ; MAPK6 ; Q16659 (Q16659 whole entry): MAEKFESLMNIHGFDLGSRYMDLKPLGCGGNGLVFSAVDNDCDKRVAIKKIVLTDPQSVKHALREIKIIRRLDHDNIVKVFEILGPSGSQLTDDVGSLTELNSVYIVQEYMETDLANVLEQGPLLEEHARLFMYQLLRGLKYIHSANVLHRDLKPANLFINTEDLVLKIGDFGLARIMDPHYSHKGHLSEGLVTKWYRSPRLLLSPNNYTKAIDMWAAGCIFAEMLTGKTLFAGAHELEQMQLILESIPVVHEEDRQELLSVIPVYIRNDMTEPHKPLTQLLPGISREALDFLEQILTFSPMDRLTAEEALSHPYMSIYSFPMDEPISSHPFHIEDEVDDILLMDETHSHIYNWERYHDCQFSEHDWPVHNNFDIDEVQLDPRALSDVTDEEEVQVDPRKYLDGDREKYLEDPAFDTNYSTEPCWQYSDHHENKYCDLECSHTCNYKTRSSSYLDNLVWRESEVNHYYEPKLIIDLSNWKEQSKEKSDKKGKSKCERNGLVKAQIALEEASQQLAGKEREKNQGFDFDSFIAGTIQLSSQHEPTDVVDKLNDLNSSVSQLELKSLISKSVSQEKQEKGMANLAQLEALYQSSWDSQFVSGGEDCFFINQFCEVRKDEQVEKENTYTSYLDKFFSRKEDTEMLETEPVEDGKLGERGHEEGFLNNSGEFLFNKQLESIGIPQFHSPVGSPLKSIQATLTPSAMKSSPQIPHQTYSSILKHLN
Chain of Isoform 2 of Serine/threonine-protein kinase TAO2 ; TAOK2 ; Q9UL54-2 (Q9UL54 whole entry, the tested form may be a part, canonical isoform, one chain of several): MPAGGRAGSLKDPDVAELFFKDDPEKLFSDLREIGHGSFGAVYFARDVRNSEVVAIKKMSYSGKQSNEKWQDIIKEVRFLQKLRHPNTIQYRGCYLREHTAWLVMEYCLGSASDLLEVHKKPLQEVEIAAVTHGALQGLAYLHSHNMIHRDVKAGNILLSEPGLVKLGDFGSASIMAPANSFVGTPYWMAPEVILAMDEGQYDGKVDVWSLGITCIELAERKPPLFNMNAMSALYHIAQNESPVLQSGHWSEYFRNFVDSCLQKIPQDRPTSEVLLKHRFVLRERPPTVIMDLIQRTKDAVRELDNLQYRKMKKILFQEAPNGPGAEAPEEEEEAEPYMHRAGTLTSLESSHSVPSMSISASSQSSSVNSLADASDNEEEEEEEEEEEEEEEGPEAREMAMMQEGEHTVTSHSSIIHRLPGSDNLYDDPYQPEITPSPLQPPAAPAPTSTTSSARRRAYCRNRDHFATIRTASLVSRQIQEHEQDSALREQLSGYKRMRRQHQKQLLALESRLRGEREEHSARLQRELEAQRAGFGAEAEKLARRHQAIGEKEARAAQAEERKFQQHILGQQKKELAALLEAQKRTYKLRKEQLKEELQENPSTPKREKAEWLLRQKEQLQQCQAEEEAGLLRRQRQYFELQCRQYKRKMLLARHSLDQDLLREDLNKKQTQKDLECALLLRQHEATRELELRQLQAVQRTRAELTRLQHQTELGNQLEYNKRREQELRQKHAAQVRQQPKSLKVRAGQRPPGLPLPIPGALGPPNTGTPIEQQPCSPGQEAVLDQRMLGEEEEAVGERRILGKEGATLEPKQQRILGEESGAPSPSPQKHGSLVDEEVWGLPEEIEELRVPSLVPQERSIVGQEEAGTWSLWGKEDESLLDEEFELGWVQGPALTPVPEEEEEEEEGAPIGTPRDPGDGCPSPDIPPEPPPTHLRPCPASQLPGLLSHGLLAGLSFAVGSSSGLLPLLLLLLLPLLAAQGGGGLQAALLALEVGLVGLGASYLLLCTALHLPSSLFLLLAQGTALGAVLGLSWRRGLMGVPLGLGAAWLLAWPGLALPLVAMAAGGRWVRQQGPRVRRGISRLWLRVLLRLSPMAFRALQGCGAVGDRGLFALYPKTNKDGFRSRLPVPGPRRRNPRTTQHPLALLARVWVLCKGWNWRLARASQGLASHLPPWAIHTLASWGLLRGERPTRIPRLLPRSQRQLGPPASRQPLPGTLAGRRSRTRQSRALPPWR
Chain of Tyrosine-protein kinase Fes/Fps ; FES ; P07332 (P07332 whole entry, one chain of several): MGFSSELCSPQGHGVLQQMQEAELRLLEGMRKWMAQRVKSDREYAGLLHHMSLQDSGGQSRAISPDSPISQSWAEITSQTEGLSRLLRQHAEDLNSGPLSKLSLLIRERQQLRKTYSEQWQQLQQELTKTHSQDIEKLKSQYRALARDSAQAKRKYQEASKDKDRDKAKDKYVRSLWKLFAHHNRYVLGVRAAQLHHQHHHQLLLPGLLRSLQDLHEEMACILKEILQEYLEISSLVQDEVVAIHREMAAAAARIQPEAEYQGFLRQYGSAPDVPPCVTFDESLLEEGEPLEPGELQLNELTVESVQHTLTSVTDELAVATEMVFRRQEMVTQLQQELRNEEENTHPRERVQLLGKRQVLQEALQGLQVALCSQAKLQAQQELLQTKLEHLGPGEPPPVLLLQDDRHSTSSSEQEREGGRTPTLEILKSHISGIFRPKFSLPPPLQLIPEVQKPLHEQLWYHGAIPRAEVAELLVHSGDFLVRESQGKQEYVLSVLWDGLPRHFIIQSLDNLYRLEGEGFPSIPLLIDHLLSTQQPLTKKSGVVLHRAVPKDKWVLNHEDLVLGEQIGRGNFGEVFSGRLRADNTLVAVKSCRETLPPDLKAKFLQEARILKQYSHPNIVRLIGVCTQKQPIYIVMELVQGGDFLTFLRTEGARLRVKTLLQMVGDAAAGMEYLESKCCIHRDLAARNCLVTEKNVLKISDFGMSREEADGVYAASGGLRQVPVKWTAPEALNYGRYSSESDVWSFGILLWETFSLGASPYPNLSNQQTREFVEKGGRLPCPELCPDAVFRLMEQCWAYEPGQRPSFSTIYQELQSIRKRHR

Q: Which remaining activity at 10 µM [1, 19] does the source give for `COc1cc(F)ccc1-c1ncnc(Nc2cccc(C[S@](C)(=N)=O)c2)n1` [BAY-1143572] here?
A: Its remaining activity at 10 µM is 87.7%.

Q: And the remaining activity at 10 µM [2, 19]?
A: Its remaining activity at 10 µM is 97.1%.

Q: What about the remaining activity at 10 µM [3, 19] of the same compound?
A: Its remaining activity at 10 µM is 116%.

Q: And the remaining activity at 10 µM [4, 19]?
A: The remaining activity at 10 µM was 137%.

Q: What about the remaining activity at 10 µM [5, 19] of the same compound?
A: The remaining activity at 10 µM was 106%.

Q: What about the remaining activity at 10 µM [6, 19] of the same compound?
A: The remaining activity at 10 µM was 178%.

Q: What about the remaining activity at 10 µM [7, 19] of the same compound?
A: The remaining activity at 10 µM was 98.2%.

Q: What about the remaining activity at 10 µM [8, 19] of the same compound?
A: Its remaining activity at 10 µM is 112%.

Q: What about the remaining activity at 10 µM [9, 19] of the same compound?
A: Its remaining activity at 10 µM is 123%.

Q: And the remaining activity at 10 µM [10, 19]?
A: Its remaining activity at 10 µM is 102%.

Q: What about the remaining activity at 10 µM [11, 19] of the same compound?
A: Its remaining activity at 10 µM is 109%.

Q: What about the remaining activity at 10 µM [12, 19] of the same compound?
A: The remaining activity at 10 µM was 75.8%.

Q: What about the remaining activity at 10 µM [13, 19] of the same compound?
A: Its remaining activity at 10 µM is 121%.

Q: What about the remaining activity at 10 µM [14, 19] of the same compound?
A: The remaining activity at 10 µM was 105%.

Q: What about the remaining activity at 10 µM [15, 19] of the same compound?
A: The remaining activity at 10 µM was 89.2%.

Q: What about the remaining activity at 10 µM [16, 19] of the same compound?
A: The remaining activity at 10 µM was 95.8%.

Q: What about the remaining activity at 10 µM [17, 19] of the same compound?
A: The remaining activity at 10 µM was 56%.

Q: What about the remaining activity at 10 µM [18, 19] of the same compound?
A: The remaining activity at 10 µM was 15.4%.

Q: What does the source list for `COc1cc(F)ccc1-c1cc(Nc2cc(CS(C)(=N)=O)ccn2)ncc1F` (stereo not drawn) [BAY-1251152]?
A: remaining activity at 10 µM [1, 20]: 99.3%; remaining activity at 10 µM [2, 20]: 97.3%; remaining activity at 10 µM [3, 20]: 108%; remaining activity at 10 µM [4, 20]: 131%; remaining activity at 10 µM [5, 20]: 142%; remaining activity at 10 µM [6, 20]: 142%; remaining activity at 10 µM [7, 20]: 101%; remaining activity at 10 µM [8, 20]: 103%; remaining activity at 10 µM [9, 20]: 111%; remaining activity at 10 µM [10, 20]: 96.1%; remaining activity at 10 µM [11, 20]: 106%; remaining activity at 10 µM [12, 20]: 68.5%; remaining activity at 10 µM [13, 20]: 108%; remaining activity at 10 µM [14, 20]: 81%; remaining activity at 10 µM [15, 20]: 104%; remaining activity at 10 µM [16, 20]: 76.6%; remaining activity at 10 µM [17, 20]: 48.9%; remaining activity at 10 µM [18, 20]: 10.4%
